Our source for the Dmax values is EP4772505A1, “COMPOUND FOR DEGRADING ANDROGEN RECEPTOR AND MEDICAL USE THEREOF” (Ubix Therapeutics, Inc., priority 2023, dated 2025).

This assay has as its target T1, Androgen Receptor (AR) (Homo sapiens, UniProt P10275, T878A).
T1 construct: endogenous in cells; host or cells: LNCaP
T1 sequence (P10275 1-920 T878A): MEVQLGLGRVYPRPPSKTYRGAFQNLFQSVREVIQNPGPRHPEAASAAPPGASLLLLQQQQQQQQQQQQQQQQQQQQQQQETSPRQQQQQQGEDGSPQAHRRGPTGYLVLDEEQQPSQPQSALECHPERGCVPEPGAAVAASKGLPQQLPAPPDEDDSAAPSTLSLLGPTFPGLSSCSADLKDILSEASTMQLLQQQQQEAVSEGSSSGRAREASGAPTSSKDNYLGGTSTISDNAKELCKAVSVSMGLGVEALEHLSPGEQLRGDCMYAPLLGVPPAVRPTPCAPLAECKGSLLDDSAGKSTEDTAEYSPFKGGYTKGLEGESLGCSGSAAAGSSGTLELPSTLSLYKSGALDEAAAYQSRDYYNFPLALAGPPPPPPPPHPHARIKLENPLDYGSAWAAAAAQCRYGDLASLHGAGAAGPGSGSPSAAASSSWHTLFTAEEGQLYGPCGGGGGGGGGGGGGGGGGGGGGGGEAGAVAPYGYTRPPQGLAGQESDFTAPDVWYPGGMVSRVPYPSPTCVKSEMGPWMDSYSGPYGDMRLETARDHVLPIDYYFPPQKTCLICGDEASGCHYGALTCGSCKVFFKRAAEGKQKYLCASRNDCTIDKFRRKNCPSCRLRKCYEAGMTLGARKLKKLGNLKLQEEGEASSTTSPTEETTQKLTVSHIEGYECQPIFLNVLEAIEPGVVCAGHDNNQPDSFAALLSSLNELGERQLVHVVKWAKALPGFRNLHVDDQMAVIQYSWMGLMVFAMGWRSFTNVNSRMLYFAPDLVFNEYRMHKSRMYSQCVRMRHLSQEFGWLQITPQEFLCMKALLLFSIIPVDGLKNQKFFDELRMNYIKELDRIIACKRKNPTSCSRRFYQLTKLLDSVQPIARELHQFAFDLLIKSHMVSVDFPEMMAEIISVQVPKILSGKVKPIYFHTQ
Put plainly: Measurement of AR protein degradation in LNCaP cells by Western blotting. Format: cell-based. As to conditions: read-out: AR degradation in LNCaP cells (%). Here is the method: The amount of AR protein present in LNCaP or VCaP cells was measured after treating them with the synthesized compound. The amount of AR protein was measured using Western blotting. The protocol for the experiments using LNCaP or VCaP cells was as follows.
[Culture] LNCaP cells were resuspended in RPMI1640 medium + HEPES (Hyclone, SH30255.01), 10% FBS (Hyclone, SV30207.02), and 1% Penicillin-streptomycin (Welgene, LS 202-02). 3 x 10^5 cells/mL were seeded in 12-well plates (1 mL per well) and cultured for 3 days. VCaP cells were resuspended in IMDM MEDIUM (Hyclone, SH30228.01), 20% FBS (Hyclone, SV30207.02), and 1% Penicillin-streptomycin (Welgene, LS 202-02), seeded at 9 x 10^5/mL in 1 mL per 12-well plate, and cultured for 3 days.
[Compound Treatment] 10 µL of 100x stock (e.g., 0.1, 1, 10 µM) compound solution at the final compound treatment concentration (e.g., 0.001, 0.01, 0.1 µM) was added to each well in 1 mL media, and cells were harvested after 20 hours. For DC50 measurement, 100x stock (0.01, 0.1, 1, 10, 100, 1000 µM) compound solutions at the final compound treatment concentration (0.0001, 0.001, 0.01, 0.1, 1, 10 µM) were used.
[Cell lysis] The cell pellet was suspended using 1% SDS lysis buffer (50 mM Tris, 1 mM EDTA, 1% SDS, pH 8.0, 0.5 mM PMSF, 1x Protease/Phosphatase inhibitor Cocktail (Cell Signaling Technology, 5872S)), and sonication (70% AMP, 10 cycles (30 sec ON/59 sec OFF)) was performed. After centrifugation at 4°C and 20,000 g for 20 minutes, the cell lysate was obtained and transferred to a new tube.
[Protein Quantification] A BCA protein assay (SMART™ BCA Protein Assay Kit, iNtRON Biotechnology, 21071) was performed using a 96-well microplate. 5 µL of cell lysate and 5 µL of 1% SDS lysis buffer were added to each well of the 96-well plate, followed by an additional 200 µL of BCA reagent (Reagent A: Reagent B = 50:1). The wells were incubated at 37°C for 30 minutes and cooled to room temperature for 10 minutes. After shaking for 10 seconds, the absorbance was measured at a wavelength of 562 nm. The unknown protein concentration was determined using a BSA standard curve (0, 0.125, 0.25, 0.5, 1, 2 mg/mL). Western blotting samples were prepared by mixing cell lysate, 1% SDS lysis buffer, 4x NuPAGE™ LDS Sample buffer (Invitrogen, NP0008), and 10X NuPAGE™ Sample Reducing Agent (Invitrogen, NP0009) and boiling at 70°C for 10 minutes.
[Electrophoresis] 10 µg of protein sample was loaded into each well of a NuPAGE™ 4 to 12%, Bis-Tris, 1.0 mm Mini Protein Gel, 15-well, 17-well, or 26-well (Invitrogen, NP0323BOX, NP0329BOX, or WG1403BOX) and electrophoresed for 40 minutes using NuPAGE™MES SDS Running Buffer (Invitrogen, NP0002) at 200 V (constant V).
[Transfer] Transfer was performed for 15 or 18 minutes using the electrophoresed gel and the Trans-Blot® Turbo™ Transfer Starter System (Bio-RAD, #17001918, Mini Nitrocellulose) at 1.3 A (constant A) and 25 V (limit V). To confirm protein transfer, 15 mL of Ponceau S solution (Sigma, P7170-1L) was used to stain for 1 minute, and then washed to check the degree of transfer.
[Blocking] The membrane for AR and GAPDH detection was blocked with 5% skim milk/0.2% TBST (Skim milk: BD, 232100/ 20X TBS: Biosesang, TR2008-100-00/ 10% Tween 20 Solution: Bio-RAD, #161-0781) for 45 minutes.
[Antibodies and Detection] Primary AR antibody (Androgen Receptor: CST, 5153S) was mixed with 5% skim milk/0.2% TBST at a ratio of 1:1,000 and reacted at room temperature for 3 hours or at 4°C overnight. Primary GAPDH antibody (CST, 2118S) was mixed with 5% skim milk/0.2% TBST at a ratio of 1:2,000 and reacted at room temperature for 3 hours or at 4°C overnight. Afterwards, TBST (0.2% Tween 20) was used for washing three times every 5 minutes. Secondary antibody to AR antibody, Anti-rabbit IgG, HRP-linked Antibody (CST, 7074S), was mixed with 5% skim milk/0.2% TBST at a ratio of 1:5,000 and reacted at room temperature for 45 minutes. […]

Where [1] appears, read: 10 nM compound, 20 hours, LNCaP cells.
Setting [2] is: 100 nM compound, 20 hours, LNCaP cells.

Read-outs that look alike come from different tables or passages of the source.

As for `N#Cc1ccc(N2CCC(C(=O)Nc3ccc(OC4CCN(CC5CCN(c6ccc(N[C@H]7CCC(=O)NC7=O)cc6F)CC5)CC4)cn3)CC2)cc1C(F)(F)F` [Example 2, (S)-1-(4-cyano-3-(trifluoromethyl)phenyl)-N-(5-((1-((1-(4-((2,6-dioxopiperidin-3-yl)amino)-2-fluorophenyl)piperidin-4-yl)methyl)piperidin-4-yl)oxy)pyridin-2-yl)piperidine-4-carboxamide], where the note is “LNCaP, 20 h”, the Dmax at 0.01 µM is 86% and the Dmax at 0.1 µM came out at 99%.
Take `N#Cc1ccc(N2CCC(C(=O)Nc3ccc(OC4CCN(CC5CCN(c6ccc(NC7CCC(=O)NC7=O)cc6F)CC5)CC4)nn3)CC2)c(F)c1Cl` (centres unmarked) [Example 15, 1-(3-chloro-4-cyano-2-fluorophenyl)-N-(6-((1-((1-(4-((2,6-dioxopiperidin-3-yl)amino)-2-fluorophenyl)piperidin-4-yl)methyl)piperidin-4-yl)oxy)pyridazin-3-yl)piperidine-4-carboxamide]: where the note is “LNCaP, 20 h”, the Dmax at 0.01 µM worked out at 88% and the Dmax at 0.1 µM worked out at 90%.
For `N#Cc1ccc(N2CCC(C(=O)Nc3ccc(OC4CCN(CC5CCN(c6ccc(N[C@@H]7CCC(=O)NC7=O)cc6F)CC5)CC4)cn3)CC2)cc1C(F)(F)F` [Example 3, (R)-1-(4-cyano-3-(trifluoromethyl)phenyl)-N-(5-((1-((1-(4-((2,6-dioxopiperidin-3-yl)amino)-2-fluorophenyl)piperidin-4-yl)methyl)piperidin-4-yl)oxy)pyridin-2-yl)piperidine-4-carboxamide], in that order: 93% and 99%.
As to `COc1cc(N2CCC(C(=O)Nc3ccc(OC4CCN(CC5CCN(c6ccc(NC7CCC(=O)NC7=O)cc6F)CC5)CC4)nn3)CC2)ccc1C#N` (centres unmarked) [Example 16, 1-(4-cyano-3-methoxyphenyl)-N-(6-((1-((1-(4-((2,6-dioxopiperidin-3-yl)amino)-2-fluorophenyl)piperidin-4-yl)methyl)piperidin-4-yl)oxy)pyridazin-3-yl)piperidine-4-carboxamide], the Dmax at 0.01 µM under setting [1] is 93%. Also, the Dmax at 0.1 µM under setting [2] came out at 98%.
Turning to `COc1cc(N2CCC(C(=O)Nc3ccc(OC4CCN(CC5CCN(c6ccc(NC7CCC(=O)NC7=O)cc6F)CC5)CC4)cn3)CC2)ccc1C#N` (centres unmarked) [Example 13, 1-(4-cyano-3-methoxyphenyl)-N-(5-((1-((1-(4-((2,6-dioxopiperidin-3-yl)amino)-2-fluorophenyl)piperidin-4-yl)methyl)piperidin-4-yl)oxy)pyridin-2-yl)piperidine-4-carboxamide], under setting [1], the Dmax at 0.01 µM is 91%. Also, the Dmax at 0.1 µM under setting [2] is 99%.
For the compound `N#Cc1ccc(N2CCC(C(=O)Nc3ccc(OC4CCN(CC5CCN(c6ccc(N[C@@H]7CCC(=O)NC7=O)cc6F)CC5)CC4)cn3)CC2)cc1Cl` [Example 10, (R)-1-(3-chloro-4-cyanophenyl)-N-(5-((1-((1-(4-((2,6-dioxopiperidin-3-yl)amino)-2-fluorophenyl)piperidin-4-yl)methyl)piperidin-4-yl)oxy)pyridin-2-yl)piperidine-4-carboxamide], under “LNCaP, 20 h”, the Dmax at 0.01 µM is 90% and the Dmax at 0.1 µM turned out to be 99%.
Taken in the same sequence, the figures for `N#Cc1ccc(N2CCC(C(=O)Nc3ccc(OC4CCN(CC5CCN(c6ccc(NC7CCC(=O)NC7=O)cc6F)CC5)CC4)cn3)CC2)c(F)c1Cl` (centres unmarked) [Example 12, 1-(3-chloro-4-cyano-2-fluorophenyl)-N-(5-((1-((1-(4-((2,6-dioxopiperidin-3-yl)amino)-2-fluorophenyl)piperidin-4-yl)methyl)piperidin-4-yl)oxy)pyridin-2-yl)piperidine-4-carboxamide] were 88% and 96%.
On to `N#Cc1ccc(N2CCC(C(=O)Nc3ccc(OC4CCN(CC5CCN(c6ccc(NC7CCC(=O)NC7=O)cc6F)CC5)CC4)nn3)CC2)cc1C(F)(F)F` (centres unmarked) [Example 7, 1-(4-cyano-3-(trifluoromethyl)phenyl)-N-(6-((1-((1-(4-((2,6-dioxopiperidin-3-yl)amino)-2-fluorophenyl)piperidin-4-yl)methyl)piperidin-4-yl)oxy)pyridazin-3-yl)piperidine-4-carboxamide], for which, where the note is “LNCaP, 20 h”, the Dmax at 0.01 µM came to 79% and the Dmax at 0.1 µM came out at 93%.
Taken in the same sequence, the figures for `N#Cc1ccc(N2CCC(C(=O)Nc3ccc(OC4CCN(CC5CCN(c6ccc(NC7CCC(=O)NC7=O)cc6F)CC5)CC4)cn3)CC2)cc1Cl` (centres unmarked) [Example 8, 1-(3-chloro-4-cyanophenyl)-N-(5-((1-((1-(4-((2,6-dioxopiperidin-3-yl)amino)-2-fluorophenyl)piperidin-4-yl)methyl)piperidin-4-yl)oxy)pyridin-2-yl)piperidine-4-carboxamide] were 91% and 98%.
For `N#Cc1ccc(N2CCC(C(=O)Nc3ccc(OC4CCN(CC5CCN(c6ccc(N[C@H]7CCC(=O)NC7=O)cc6F)CC5)CC4)cn3)CC2)cc1Cl` [Example 9, (S)-1-(3-chloro-4-cyanophenyl)-N-(5-((1-((1-(4-((2,6-dioxopiperidin-3-yl)amino)-2-fluorophenyl)piperidin-4-yl)methyl)piperidin-4-yl)oxy)pyridin-2-yl)piperidine-4-carboxamide], in that order: 86% and 96%.
